From patent publication US11026943B2, “Aminoquinoline derivatives and uses thereof” (UNIVERSITY OF DELHI, priority 2012, dated 2021)

Test: Solubility (solvent listed in compound tables)
Format: physicochemical
Settings: solvent named

Row | Compound | SOLUBILITY (Table 3) | SOLUBILITY (Table 4)
1 | COc1cc(Nc2nc(NCCNc3c4ccc(Cl)cc4nc4ccc(OC)cc34)nc(N3CCCCC3)n2)cc(OC)c1 [ATH 158] | DMSO | 
2 | COc1cc(Nc2nc(NCCCNc3c4ccc(Cl)cc4nc4ccc(OC)cc34)nc(N3CCCCC3)n2)cc(OC)c1 [ATH 159] | DMSO | 
3 | COc1ccc(Nc2nc(NCCNc3c4ccc(Cl)cc4nc4ccc(OC)cc34)nc(N3CCN(c4ccccc4)CC3)n2)cc1 [ATH 164] | DMSO | 
4 | COc1ccc(Nc2nc(NCCNc3c4ccc(Cl)cc4nc4ccc(OC)cc34)nc(N(C)C)n2)cc1 [ATH 165] | DMSO | 
5 | COc1ccc(Nc2nc(NCCCNc3c4ccc(Cl)cc4nc4ccc(OC)cc34)nc(N(C)C)n2)cc1 [ATH 166] | DMSO | 
6 | COc1cc(Nc2nc(NCCNc3c4ccc(Cl)cc4nc4ccc(OC)cc34)nc(N3CCN(c4ccccc4)CC3)n2)cc(OC)c1 [ATH 170] | DMSO | 
7 | COc1cc(Nc2nc(NCCCNc3c4ccc(Cl)cc4nc4ccc(OC)cc34)nc(N3CCN(c4ccccc4)CC3)n2)cc(OC)c1 [ATH 171] | DMSO | 
8 | COc1ccc2nc3cc(Cl)ccc3c(NCCNc3nc(N4CCN(c5ccccc5)CC4)nc(N4CCN(c5ccccc5)CC4)n3)c2c1 [ATH 178] | DMSO | 
9 | COc1ccc2nc3cc(Cl)ccc3c(CNCCNc3nc(N4CCN(c5ccccc5)CC4)nc(N4CCN(c5ccccc5)CC4)n3)c2c1 [ATH 179] | DMSO | 
10 | COc1ccc(Nc2nc(NCCNc3c4ccc(Cl)cc4nc4ccc(OC)cc34)nc(N3CCOCC3)n2)cc1 [ATH 182] | DMSO | 
11 | COc1ccc(Nc2nc(NCCNCc3c4ccc(Cl)cc4nc4ccc(OC)cc34)nc(N3CCOCC3)n2)cc1 [ATH 184] | DMSO | 
12 | COc1ccc(Nc2nc(NCCNc3c4ccc(Cl)cc4nc4ccc(OC)cc34)nc(N3CCCCC3)n2)cc1 [ATH 189] | DMSO | 
13 | COc1ccc(Nc2nc(NCCNCc3c4ccc(Cl)cc4nc4ccc(OC)cc34)nc(N3CCCCC3)n2)cc1 [ATH 191] | DMSO | 
14 | COc1cc(Nc2nc(NCCNc3c4ccc(Cl)cc4nc4ccc(OC)cc34)nc(NC3CCCCC3)n2)cc(OC)c1 [ATH 192] | DMSO | 
15 | COc1cc(Nc2nc(NCCNCc3c4ccc(Cl)cc4nc4ccc(OC)cc34)nc(NC3CCCCC3)n2)cc(OC)c1 [ATH 194] | DMSO | 
16 | COc1ccc(Nc2nc(NCCNCc3c4ccc(Cl)cc4nc4ccc(OC)cc34)nc(N(C)C)n2)cc1 [ATH 196] | DMSO | 
17 | COc1ccc(Nc2nc(NCCCNc3c4ccc(Cl)cc4nc4ccc(OC)cc34)nc(N3CCN(c4ccccc4)CC3)n2)cc1 [ATH 198] | DMSO | 
18 | COc1ccc(Nc2nc(NCCNc3c4ccc(Cl)cc4nc4ccc(OC)cc34)nc(NC3CCCCC3)n2)cc1 [ATH 200] | DMSO | 
19 | COc1ccc(Nc2nc(NCCCNc3c4ccc(Cl)cc4nc4ccc(OC)cc34)nc(NC3CCCCC3)n2)cc1 [ATH 201] | DMSO | 
20 | COc1cc(Nc2ccnc(N3CCN(c4ccnc5cc(Cl)ccc45)CC3)n2)cc(OC)c1 [ATH 214] | DMSO | 

Row | Compound | SOLUBILITY (Table 3) | SOLUBILITY (Table 4)
21 | Clc1ccc2c(N3CCN(c4ccnc(Cl)n4)CC3)ccnc2c1 [ATH 218] | DMSO | 
22 | COc1ccc(Nc2ccnc(N3CCN(c4ccnc5cc(Cl)ccc45)CC3)n2)cc1 [ATH 220] | DMSO | 
23 | Fc1ccc(Nc2ccnc(N3CCN(c4ccnc5cc(Cl)ccc45)CC3)n2)cc1 [ATH 223] | DMSO | 
24 | Clc1ccc2c(N3CCN(c4nccc(Nc5ccc(Br)cc5)n4)CC3)ccnc2c1 [ATH 226] | DMSO | 
25 | Clc1ccc(Nc2ccnc(N3CCN(c4ccnc5cc(Cl)ccc45)CC3)n2)cc1 [ATH 227] | DMSO | 
26 | Clc1ccc2c(N3CCN(c4ccnc(N5CCOCC5)n4)CC3)ccnc2c1 [ATH 228] | DMSO | 
27 | Clc1ccc2c(N3CCN(c4ccnc(N5CCCCC5)n4)CC3)ccnc2c1 [ATH 231] | DMSO | 
28 | Clc1ccc2c(N3CCN(c4nccc(Nc5ccccc5)n4)CC3)ccnc2c1 [ATH 232] | DMSO | 
29 | Clc1ccc2c(N3CCN(c4ccnc(NC5CCCCC5)n4)CC3)ccnc2c1 [ATH 236] | DMSO | 
30 | Cc1cc(N2CCN(c3ccnc4cc(Cl)ccc34)CC2)nc(Cl)n1 [ATH 237] | DMSO | 
31 | Cc1cc(N2CCN(c3ccnc4cc(Cl)ccc34)CC2)nc(N2CCOCC2)n1 [ATH 239] | DMSO | 
32 | Cc1cc(N2CCN(c3ccnc4cc(Cl)ccc34)CC2)nc(N2CCCCC2)n1 [ATH 240] | DMSO | 
33 | Cc1cc(N2CCN(c3ccnc4cc(Cl)ccc34)CC2)nc(NC2CCCCC2)n1 [ATH 241] | DMSO | 
34 | COc1cc(Nc2cc(C)nc(N3CCN(c4ccnc5cc(Cl)ccc45)CC3)n2)cc(OC)c1 [ATH 244] | DMSO | 
35 | COc1ccc(Nc2cc(C)nc(N3CCN(c4ccnc5cc(Cl)ccc45)CC3)n2)cc1 [ATH 245] | DMSO | 
36 | Cc1cc(Nc2ccc(F)cc2)nc(N2CCN(c3ccnc4cc(Cl)ccc34)CC2)n1 [ATH 247] | DMSO | 
37 | Clc1ccc2c(N3CCN(c4ccnc(N5CCCC5)n4)CC3)ccnc2c1 [ATH 252] | DMSO | 
38 | OCCNc1nccc(N2CCN(c3ccnc4cc(Cl)ccc34)CC2)n1 [ATH 254] | DMSO | 
39 | OCCCNc1nccc(N2CCN(c3ccnc4cc(Cl)ccc34)CC2)n1 [ATH 255] | DMSO | 
40 | Cc1cc(N2CCN(c3ccnc4cc(Cl)ccc34)CC2)nc(N2CCCC2)n1 [ATH 256] | DMSO | 

Next, values leading:

Row | SOLUBILITY (Table 3) | SOLUBILITY (Table 4) | Compound
41 |  | DMSO | Cc1ccc(Nc2ccnc(NCCNc3ccnc4cc(Cl)ccc34)n2)cc1 [DKG805]
42 |  | DMSO | Cc1ccc(Nc2ccnc(NCCCNc3ccnc4cc(Cl)ccc34)n2)cc1 [DKG806]
43 |  | DMSO | Cc1ccc(Nc2ccnc(NCCCCNc3ccnc4cc(Cl)ccc34)n2)cc1 [DKG807]
44 |  | DMSO | Clc1ccc2c(NCCNc3nccc(Nc4ccc(Br)cc4)n3)ccnc2c1 [DKG809]
45 |  | DMSO | Clc1ccc2c(NCCCNc3nccc(Nc4ccc(Br)cc4)n3)ccnc2c1 [DKG810]
46 |  | DMSO | Clc1ccc2c(NCCCCNc3nccc(Nc4ccc(Br)cc4)n3)ccnc2c1 [DKG811]
47 |  | DMSO | Clc1ccc(Nc2ccnc(NCCNc3ccnc4cc(Cl)ccc34)n2)cc1 [DKG813]
48 |  | DMSO | Clc1ccc(Nc2ccnc(NCCCNc3ccnc4cc(Cl)ccc34)n2)cc1 [DKG814]
49 |  | DMSO | Clc1ccc(Nc2ccnc(NCCCCNc3ccnc4cc(Cl)ccc34)n2)cc1 [DKG815]
50 |  | DMSO | Fc1ccc(Nc2ccnc(NCCNc3ccnc4cc(Cl)ccc34)n2)cc1 [DKG817]
51 |  | DMSO | Fc1ccc(Nc2ccnc(NCCCNc3ccnc4cc(Cl)ccc34)n2)cc1 [DKG818]
52 |  | DMSO | Fc1ccc(Nc2ccnc(NCCCCNc3ccnc4cc(Cl)ccc34)n2)cc1 [DKG819]
53 |  | DMSO | Clc1ccc2c(NCCNc3nccc(Nc4ccccc4)n3)ccnc2c1 [DKG821]
54 |  | DMSO | Clc1ccc2c(NCCCNc3nccc(Nc4ccccc4)n3)ccnc2c1 [DKG822]
55 |  | DMSO | Clc1ccc2c(NCCCCNc3nccc(Nc4ccccc4)n3)ccnc2c1 [DKG823]
56 |  | DMSO | COc1ccc(Nc2ccnc(NCCNc3ccnc4cc(Cl)ccc34)n2)cc1 [DKG825]
57 |  | DMSO | COc1ccc(Nc2ccnc(NCCCNc3ccnc4cc(Cl)ccc34)n2)cc1 [DKG826]
58 |  | DMSO | COc1ccc(Nc2ccnc(NCCCCNc3ccnc4cc(Cl)ccc34)n2)cc1 [DKG827]
